Results as given in US20150328329A1, “LIGANDS THAT TARGET HCV-E2 BINDING SITES ON CD81 AND THERAPEUTIC METHODS USING THEM” (American University of Cairo, priority 2012, published 2015).

What was measured:
[1] = biological target: T1, recombinant CD81-LEL (Homo sapiens, UniProt P60033); test: SPR (Biacore T100) binding of additional ligands to immobilized CD81-LEL (Example 6); details: Table E, ligand 200 uM in PBS-1% DMSO
T1 construct: the large extracellular loop of CD81 (CD81-LEL); GST; His; Shoshana Levy Lab, Stanford (gift)
T1 sequence (P60033 113-201 limits assumed): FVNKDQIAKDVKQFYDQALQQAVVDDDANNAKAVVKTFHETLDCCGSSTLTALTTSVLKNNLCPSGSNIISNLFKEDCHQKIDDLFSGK
Procedure: SPR analysis was performed using a Biacore T100 workstation (GE Healthcare, NJ, USA). A recombinant form of the CD81-LEL protein with a GST-tag (Shoshana Levy Lab-Stanford) was used to determine the binding affinities of the ligands in the above list. 10 uM CD81-LEL-His diluted into 10 mM sodium acetate buffer pH 4.5 was immobilized for […] at a flow speed of 5 ul/min onto a CM5 sensor chip using amine coupling (EDC-NHS). Approximately 20,000 RU of protein were immobilized on the chip. The ligands were prepared as 200 uM solutions in PBS-1% DMSO (the running buffer) and they were introduced to the protein using a pre-programmed 3 min association and 1 min dissociation interval. Ligands that bind have a positive RU (response units) number and the strength of binding to the CD81 protein is related to the magnitude of the RU number; the larger the number the more binding.

[2] = biological target: T2, recombinant CD81-LEL (GST tag) (Homo sapiens, UniProt P60033); test: Surface plasmon resonance (Biacore T200) binding of ligands to immobilized recombinant CD81-LEL; details: Table A; ligand 600 μM in PBS-0.05% Tween-80; CD81-LEL-GST on CM5 chip
T2 construct: the large extracellular loop of CD81 (CD81-LEL); gift of Dr. Shoshana Levy, Stanford University
T2 sequence (P60033 113-201 limits assumed): T1 sequence (P60033 113-201 limits assumed)
Procedure: SPR analysis was performed using a Biacore T200 workstation (GE Healthcare, NJ, USA). A recombinant form of the CD81-LEL protein with a GST tag (generously provided by Dr. Shoshana Levy, Stanford University) was used to confirm, using an established experimental technique, the binding of several ligands to the protein. Briefly, 10 μM CD81-LEL-GST diluted into 10 mM Na-Acetate buffer pH 4.5 was immobilized for 15 min at a flow speed of 5 μl/min onto a CM5 sensor chip using amine-coupling (EDC-NHS). Approximately 20,000 RU of protein were immobilized on the chip. The ligands were prepared as 600 μM solutions in PBS-0.05% Tween-80 (the running buffer) and they were introduced to the protein using a pre-programmed 3 minute association and 1 minute dissociation interval.
The binding affinity of the most tightly bound ligand in the group selected for ligand conjugate design (Ligand 1) was estimated using data collected from a series of SPR binding experiments conducted at different ligand concentrations. To obtain the kinetic and affinity data needed to estimate the Kd, the original ligand was diluted serially with running buffer to produce seven different ligand concentrations: 1024 μM, […], 256 μM, 128 μM, 64 μM, 32 μM and 0 μM. Data were fitted using a monovalent binding model.
A total of 36 ligands were tested experimentally using surface Plasmon resonance (on a Biacore T200 instrument) to identify which of the molecules calculated to bind to Sites 1 and 2 on CD81 actually bind to a recombinant form of the protein (CD81-LEL). Twenty-six of the molecules provided a positive change in response units (RU) upon introduction to a chip containing the immobilized protein (Table A), indicating the ligands bound to the protein. The measured responses for the ligands that bound varied from 2.3 to 78.4 RU. Those ligands providing the largest responses tended to be molecules that were calculated to bind more deeply inside cavities in Site 1 (ligands 30930, 98026, 7436, 5069), Site 2 (ligands 127947, 38743) or Site 4 (ligands 78623, 16631).
Experimental analysis of ligand binding to recombinant CD81 LEL. Forty ligands calculated by AutoDock to bind to sites 1 and 2 on CD81-LEL were tested experimentally using surface Plasmon resonance as described in the Materials and Methods section. Ligand code numbers are those assigned by the National Cancer Institute. […] Because the binding experiments were performed by passing the same concentration of each ligand sequentially across the same protein coated chip using both techniques, the magnitude of the responses can be used to provide an approximate ranking of binding strength.

[3] = biological target: T3, native CD81 on Raji cells (Homo sapiens, UniProt P60033); test: Competition assay: inhibition of FITC-labeled JS-81 anti-CD81 antibody binding to native CD81 on live Raji cells (flow cytometry); assay type: cell-based
T3 construct: endogenous in cells; host or cells: Raji (human B cell line)
T3 sequence (P60033 1-236): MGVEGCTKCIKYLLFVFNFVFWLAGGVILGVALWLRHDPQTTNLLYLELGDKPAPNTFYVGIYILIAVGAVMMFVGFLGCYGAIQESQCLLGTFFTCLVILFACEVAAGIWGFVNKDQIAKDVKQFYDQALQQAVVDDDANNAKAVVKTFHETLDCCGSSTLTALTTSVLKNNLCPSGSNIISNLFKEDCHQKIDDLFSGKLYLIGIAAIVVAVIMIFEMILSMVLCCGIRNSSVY
Excerpt: A subset of these ligands and some of those listed in the patent have been tested to identify those ligands that bind to the correct region of the CD81 protein and for binding to native CD81 on living cells (a Raji cell line). This assay tests three concentrations of the ligand to determine if the ligand is capable of inhibiting the binding of an antibody called JS-81. This antibody is known to bind to the region of the CD81 protein we have targeted. If the ligand decreases JS-81 binding as you increase the concentration of the ligand, it is 1) binding to native CD81 on the Raji cells and 2) it is binding to the correct region of the protein.
For antibody neutralization assay Raji cells were used, a human B cell line that expressed high amounts of CD81 on the surface (data not shown). Cells were grown in RPMI medium (10% FCS, 1% penicillin/streptomycin, 1% L-glutamine, 1% non-essential amino acids, 1% sodium pyruvate, pH 7.4, at 37° C. with 5% CO2). 2×10^5 cells were incubated with or without different concentrations (50 μM, 100 μM, 400 μM and 1 mM) of indicated inhibitor for 20 min at room temperature, subsequently 1 ul (16 ng/μl) of FITC-labeled anti CD81 antibody (BD Pharmingen, 551108) was added to the cells and incubated for 20 min (antibody titration was performed to obtain a working dilution range, data not shown). Cells were washed and analyzed by flow cytometry using fluorescence-activated cell sorting (FACS) (BD FACSCalibur, software: Cell Quest Pro). Mean Fluorescence Intensity MFI was calculated using Flowjo software (TreesStar, www.flowjo.com).

| Binding (RU) [1] | SPR Response Units [2] | Inhibition of JS-81 Binding (%) ([3]; 50 μM ligand) | Inhibition of JS-81 Binding (%) ([3]; 100 μM ligand) | Inhibition of JS-81 Binding (%) ([3]; 400 μM ligand) | SMILES |
| --- | --- | --- | --- | --- | --- |
| 2.7 RU | – | – | – | – | Cc1ccc(NC(=S)NC(=O)c2ccccc2)cc1NC(=S)NC(=O)c1ccccc1 [Ligand 5856] |
| 14.7 RU | – | 0% | 0% | 19% | CCC(C)(C)c1ccc(Oc2cccc(C(=O)O)c2)cc1 [Ligand 7962] |
| 1.8 RU | – | – | – | – | CC(C)(C)c1ccc(OCC(=O)O)cc1 [Ligand 8481] |
| 5.1 RU | – | – | – | – | CCNc1ccccc1C(=O)O [Ligand 16162] |
| – | 61.8 RU | – | – | – | O=C(O)c1ccc(O)c(O)c1 [Ligand 16631] |
| 4.9 RU | – | – | – | – | CC(C)Oc1ccc(C(=O)O)cc1 [Ligand 16646] |
| 11.1 RU | – | 0% | 4% | 19% | Cc1ccc(-c2cc(C(=O)O)c3ccccc3n2)c(C)c1 [Ligand 25678] |
| 50.8 RU | – | 0% | 8% | 26% | O=C(O)/C(=C/c1ccccc1)c1ccccc1 [Ligand 40614] |
| 5.8 RU | – | – | – | – | C=CCc1ccccc1OCC(=O)O [Ligand 60239] |
| 4.3 RU | – | – | – | – | CC(OC(=O)Nc1cccc(Cl)c1)C(=O)O (stereo not drawn) [Ligand 73170] |
| 18.9 RU | – | 0% | 1% | 31% | O=C(O)Cn1ccc2ccccc21 [Ligand 75866] |
| 5.4 RU | – | – | – | – | COc1cccc(C2Nc3cccc4cccc(c34)N2)c1 [Ligand 76823] |

Continued, compound first:

| SMILES | Binding (RU) [1] | SPR Response Units [2] | Inhibition of JS-81 Binding (%) ([3]; 50 μM ligand) | Inhibition of JS-81 Binding (%) ([3]; 100 μM ligand) | Inhibition of JS-81 Binding (%) ([3]; 400 μM ligand) |
| --- | --- | --- | --- | --- | --- |
| CC1CCCC(CC(=O)O)(CC(=O)O)C1 (stereo not drawn) [Ligand 3001] | 4.6 RU | – | – | – | – |
| O=C(O)CC1OCC=C2CN3CCC45C6=CC(=O)C(=O)C([N+](=O)[O-])=C6NC4C1C2CC35 (stereo not drawn) [Ligand 5069] | – | 67.5 RU | – | – | – |
| Cn1ncc2c(Nc3ccc(Br)cc3)nc(Nc3ccc(Br)cc3)nc21 [Ligand 11667] | 9.6 RU | – | – | – | – |
| O=C(O)CSc1nc2ccccc2s1 [Ligand 11891] | – | 15.2 RU | – | – | – |
| N=C(N)Nc1ccc(NC(=N)N)cc1 [Ligand 20586] | 17.4 RU | – | – | – | – |
| O=C(O)/C=C\c1cc2c(cc1[N+](=O)[O-])OCO2 [Ligand 21034] | – | 21.1 RU | – | – | – |
| O=C(O)c1ccc(N2CCCCC2)cc1O [Ligand 23895] | 10 RU | – | 0% | 0% | 17% |
| CC(C)OC1CCCC(O)C1CC(=O)O (stereo not drawn) [Ligand 25368] | – | 13.3 RU | – | – | – |
| O=C(O)c1[nH]c(=O)[nH]c(=O)c1F [Ligand 31712] | 4.1 RU | – | – | – | – |
| CNC1(C(N)=O)CCNCC1 [Ligand 75846] | – | – | 0% | 0% | 52% |
